This is an account of results in ChEMBL document CHEMBL4373715, “Discovery and Biological Evaluations of Halogenated 2,4-Diphenyl Indeno[1,2-b]pyridinol Derivatives as Potent Topoisomerase IIα-Targeted Chemotherapeutic Agents for Breast Cancer” (J Med Chem, 2019).

Assay [1] has as its system HeLa. As to the kind of experiment: Antiproliferative activity against human HeLa cells measured after 72 hrs by EZ-Cytox assay. Format: functional, cell-based.
Assay [2] addresses T1, DNA topoisomerase 1 (Homo sapiens) (UniProt P11387).
T1 sequence (whole entry): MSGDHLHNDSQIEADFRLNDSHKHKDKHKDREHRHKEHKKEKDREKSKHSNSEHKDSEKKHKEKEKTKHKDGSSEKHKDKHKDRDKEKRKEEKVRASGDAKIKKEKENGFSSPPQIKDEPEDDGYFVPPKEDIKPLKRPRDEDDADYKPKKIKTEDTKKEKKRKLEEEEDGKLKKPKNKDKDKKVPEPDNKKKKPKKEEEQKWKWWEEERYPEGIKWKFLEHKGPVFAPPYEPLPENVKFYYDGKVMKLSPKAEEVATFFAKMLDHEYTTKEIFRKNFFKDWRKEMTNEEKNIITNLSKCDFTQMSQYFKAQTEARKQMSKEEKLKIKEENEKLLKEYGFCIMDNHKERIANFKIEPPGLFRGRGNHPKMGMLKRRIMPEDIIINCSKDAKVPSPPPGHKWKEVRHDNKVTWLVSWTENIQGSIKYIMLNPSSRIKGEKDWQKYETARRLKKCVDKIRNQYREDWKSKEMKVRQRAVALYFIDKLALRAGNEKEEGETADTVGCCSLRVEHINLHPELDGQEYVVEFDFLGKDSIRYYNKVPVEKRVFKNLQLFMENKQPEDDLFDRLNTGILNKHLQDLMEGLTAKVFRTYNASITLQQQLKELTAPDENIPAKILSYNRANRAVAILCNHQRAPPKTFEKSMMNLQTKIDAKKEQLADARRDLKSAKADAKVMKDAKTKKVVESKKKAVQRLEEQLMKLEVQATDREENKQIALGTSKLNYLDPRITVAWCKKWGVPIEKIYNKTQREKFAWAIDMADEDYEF
As to the kind of experiment: Inhibition of recombinant human topoisomerase 1-mediated relaxation of supercoiled pBR322 DNA at 100 uM measured after 30 mins by ethidium bromide staining based agarose gel electrophoresis relative to control.

The test system of assay [3] is T47D. The assay can be described thus: Antiproliferative activity against human T47D cells measured after 72 hrs by EZ-Cytox assay. Format: functional, cell-based.
Assay [4] concerns HCT-15. As to the kind of experiment: Antiproliferative activity against human HCT15 cells measured after 72 hrs by EZ-Cytox assay. Format: functional, cell-based. The note with it: HCT-15, 72 h.
Assay [5] has as its system DU-145. The assay can be described thus: Antiproliferative activity against human DU145 cells measured after 72 hrs by EZ-Cytox assay. The assay is classed as functional, cell-based. Particulars: DU-145, 72 h.
In assay [6] the target is DNA topoisomerase 2-alpha (Homo sapiens) (UniProt P11388). The assay can be described thus: Inhibition of recombinant human topoisomerase 2alpha-mediated relaxation of supercoiled pBR322 DNA at 100 uM measured after 30 mins by ethidium bromide staining based agarose gel electrophoresis relative to control.
Assay [7] shares this target. As to the kind of experiment: Inhibition of recombinant human topoisomerase 2alpha-mediated relaxation of supercoiled pBR322 DNA at 20 uM measured after 30 mins by ethidium bromide staining based agarose gel electrophoresis relative to control.

DNA topoisomerase 2-alpha (Homo sapiens), sequence (P11388 whole entry): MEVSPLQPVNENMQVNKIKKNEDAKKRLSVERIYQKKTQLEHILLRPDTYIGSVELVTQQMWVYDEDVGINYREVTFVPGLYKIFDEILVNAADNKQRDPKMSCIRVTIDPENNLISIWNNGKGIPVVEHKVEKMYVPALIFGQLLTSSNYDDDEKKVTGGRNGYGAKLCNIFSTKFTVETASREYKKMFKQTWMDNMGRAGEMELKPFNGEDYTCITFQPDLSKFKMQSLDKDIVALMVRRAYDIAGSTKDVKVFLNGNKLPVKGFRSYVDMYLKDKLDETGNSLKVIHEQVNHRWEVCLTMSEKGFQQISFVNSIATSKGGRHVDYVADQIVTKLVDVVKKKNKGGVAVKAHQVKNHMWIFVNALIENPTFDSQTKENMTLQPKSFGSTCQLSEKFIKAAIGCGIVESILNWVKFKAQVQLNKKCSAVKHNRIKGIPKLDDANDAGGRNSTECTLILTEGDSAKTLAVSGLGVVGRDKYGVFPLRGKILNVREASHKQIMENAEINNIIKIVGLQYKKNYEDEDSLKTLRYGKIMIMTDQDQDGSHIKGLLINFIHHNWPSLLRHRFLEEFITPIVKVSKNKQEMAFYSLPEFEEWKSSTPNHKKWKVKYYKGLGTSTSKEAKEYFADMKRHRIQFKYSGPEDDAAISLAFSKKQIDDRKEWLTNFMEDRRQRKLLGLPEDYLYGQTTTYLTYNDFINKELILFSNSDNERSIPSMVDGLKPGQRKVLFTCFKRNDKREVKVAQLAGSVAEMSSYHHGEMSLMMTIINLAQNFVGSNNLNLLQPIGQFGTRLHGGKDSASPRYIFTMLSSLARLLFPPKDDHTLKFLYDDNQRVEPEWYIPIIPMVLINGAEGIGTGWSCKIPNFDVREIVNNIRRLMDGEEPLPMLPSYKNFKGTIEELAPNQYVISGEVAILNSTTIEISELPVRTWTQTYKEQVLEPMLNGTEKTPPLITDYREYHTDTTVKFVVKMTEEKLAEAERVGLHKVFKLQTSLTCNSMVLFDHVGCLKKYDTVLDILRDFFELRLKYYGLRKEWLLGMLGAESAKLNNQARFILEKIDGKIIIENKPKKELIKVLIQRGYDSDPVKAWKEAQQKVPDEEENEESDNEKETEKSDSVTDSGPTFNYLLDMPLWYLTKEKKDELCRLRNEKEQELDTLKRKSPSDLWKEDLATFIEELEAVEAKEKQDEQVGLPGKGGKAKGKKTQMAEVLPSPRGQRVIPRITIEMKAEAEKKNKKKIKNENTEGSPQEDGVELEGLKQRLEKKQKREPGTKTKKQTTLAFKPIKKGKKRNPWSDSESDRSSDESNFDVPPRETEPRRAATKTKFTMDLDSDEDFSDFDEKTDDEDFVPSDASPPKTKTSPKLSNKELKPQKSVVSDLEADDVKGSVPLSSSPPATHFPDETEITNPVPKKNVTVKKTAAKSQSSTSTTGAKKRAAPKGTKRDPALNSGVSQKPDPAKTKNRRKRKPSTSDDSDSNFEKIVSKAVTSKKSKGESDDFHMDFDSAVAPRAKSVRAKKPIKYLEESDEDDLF

Regarding `Oc1cccc(-c2cc(-c3cccc(Cl)c3)c3c(n2)-c2cc(O)ccc2C3)c1`, the half-inhibitory concentration (IC50) (in general, the midpoint of a concentration-inhibition curve) came to 6.24 µM in assay [1], 7.2 µM in assay [3], 6.6 µM in assay [4] and 3.22 µM in assay [5]. Besides, the inhibition (usually the change of the read-out against control, counted positive when it falls) in assay [2] is 11.6%; in assay [6], 76.3%; in assay [7] it was 3.5%.
As to `Oc1cccc(-c2cc(-c3cccc(Cl)c3)nc3c2Cc2cccc(O)c2-3)c1`, the half-maximal inhibitory concentration (IC50) in assay [1] amounted to 4.59 µM; in assay [3] it was 1.63 µM; in assay [4], 2.49 µM; in assay [5] it was 3.48 µM. Further, the inhibition in assay [2] is 16.9%; in assay [6] it was 88.6%; in assay [7], 3.4%.
On to `Oc1ccc(-c2cc(-c3ccc(F)cc3)nc3c2Cc2cccc(O)c2-3)cc1`, for which the IC50 in assay [1] was over 50 µM; in assay [3], 24.5 µM; in assay [4], over 50 µM; in assay [5], over 50 µM. Also, the results for the inhibition in assay [2], in assay [6] and in assay [7] were 1.2%, 75.3% and 1.4%, respectively.
`Oc1ccc(-c2cc(-c3ccccc3)c3c(n2)-c2ccc(O)cc2C3)cc1`: the IC50 in assay [1] stood at 2.67 µM; in assay [3], 0.73 µM; in assay [4], 1.27 µM; in assay [5], 0.71 µM. The inhibition in assay [2] was 8.8%; in assay [6], 42.8%; in assay [7], 8.3%.
As to `Oc1ccccc1-c1cc(-c2ccccc2Cl)c2c(n1)-c1cccc(O)c1C2`, the IC50 was determined as 4.59 µM in assay [1], 3.03 µM in assay [3], 4.12 µM in assay [4] and 4.03 µM in assay [5]. The inhibition in assay [2] came out at 23.7%; in assay [6], 79.2%; in assay [7] it was 1.8%.
In the case of `Oc1ccc(-c2cc(-c3ccc(Cl)cc3)c3c(n2)-c2c(O)cccc2C3)cc1`, the IC50 in assay [1], in assay [3], in assay [4] and in assay [5] was over 50 µM throughout. Further, the inhibition in assay [2] turned out to be 0%; in assay [6], 96.8%; in assay [7], 9.3%.
As to `Oc1ccc2c(c1)Cc1c(-c3ccccc3)cc(-c3ccccc3)nc1-2`, the IC50 in assay [1] worked out at 4.94 µM; in assay [3], 0.7 µM; in assay [4], 3.37 µM; in assay [5] it was 3.82 µM. Further, the values for the inhibition in assay [2], in assay [6] and in assay [7] were 2.1%, 54.2% and 2.1%, respectively.
As to `Oc1cccc(-c2cc(-c3cccc(C(F)(F)F)c3)nc3c2Cc2cc(O)ccc2-3)c1`, the IC50 in assay [1] worked out at 2.03 µM; in assay [3] it was 1.33 µM; in assay [4] it was 2.22 µM; in assay [5], 1.42 µM. Moreover, the results for the inhibition in assay [2], in assay [6] and in assay [7] were 10.2%, 85.2% and 29%, respectively.
`Oc1ccccc1-c1cc(-c2cccc(Cl)c2)c2c(n1)-c1cccc(O)c1C2`: the IC50 in assay [1] turned out to be 20.5 µM; in assay [3], 12 µM; in assay [4] it was 2.45 µM; in assay [5], 6.01 µM. Also, the inhibition amounted to 0% in assay [2], 75.4% in assay [6] and 1.5% in assay [7].
Regarding `Oc1ccc(-c2cc(-c3cccc(Cl)c3)c3c(n2)-c2ccc(O)cc2C3)cc1`, the IC50 in assay [1] came out at 5.94 µM; in assay [3], 1.86 µM; in assay [4], 5.69 µM; in assay [5], 2.25 µM. For the same molecule, the figures for the inhibition in assay [2], in assay [6] and in assay [7] were 8.8%, 73.9% and 3.3%, respectively.
Turning to `Oc1ccc(-c2cc(-c3ccc(Cl)cc3)nc3c2Cc2cc(O)ccc2-3)cc1`, the IC50 turned out to be 1.02 µM in assay [1], 1.84 µM in assay [3], 0.77 µM in assay [4] and 1.91 µM in assay [5]. Further, the inhibition was determined as 0% in assay [2], 100% in assay [6] and 50.2% in assay [7].
As for `Oc1ccccc1-c1cc(-c2cccc(C(F)(F)F)c2)nc2c1Cc1c(O)cccc1-2`, the 50% inhibitory concentration (IC50) in assay [1] turned out to be 4.25 µM; in assay [3] it was 0.77 µM; in assay [4], 3.34 µM; in assay [5] it was 1.87 µM. Besides, the inhibition in assay [2] came out at 0.3%; in assay [6] it was 94.2%; in assay [7], 5.3%.
As to `Oc1ccc(-c2cc(-c3ccc(Cl)cc3)c3c(n2)-c2ccc(O)cc2C3)cc1`, the concentration for half-maximal inhibition (IC50) in assay [1] is 6.83 µM; in assay [3], 1.51 µM; in assay [4], 18.5 µM; in assay [5] it was 1.43 µM. In addition, the inhibition in assay [2] was determined as 7.7%; in assay [6], 98.1%; in assay [7], 8.9%.
Consider `Oc1ccccc1-c1cc(-c2ccccc2Cl)c2c(n1)-c1c(O)cccc1C2`, for which the IC50 was over 50 µM in assay [1], 2.93 µM in assay [3], 2.03 µM in assay [4] and 5.67 µM in assay [5]. For the same molecule, the inhibition in assay [2] is 23.9%; in assay [6], 56.5%; in assay [7], 1.6%.
`Oc1cccc(-c2cc(-c3ccccc3C(F)(F)F)nc3c2Cc2cc(O)ccc2-3)c1`: the half-maximal inhibitory concentration (IC50) in assay [1] was found to be 4 µM; in assay [3] it was 1.25 µM; in assay [4], 2.82 µM; in assay [5], 2.5 µM. Also, the inhibition in assay [2] stood at 11.7%; in assay [6], 80.6%; in assay [7], 2.4%.
For `Oc1ccc(-c2cc(-c3ccccc3C(F)(F)F)nc3c2Cc2c(O)cccc2-3)cc1`, the IC50 in assay [1] is over 50 µM; in assay [3] it was 2.66 µM; in assay [4], 3.82 µM; in assay [5] it was 5.34 µM. The inhibition in assay [2] was determined as 7.1%; in assay [6] it was 30.1%; in assay [7] it was 0.6%.
For `Oc1ccc(-c2cc(-c3ccccc3C(F)(F)F)nc3c2Cc2cc(O)ccc2-3)cc1`, the IC50 was 2.07 µM in assay [1], 1.05 µM in assay [3], 2.43 µM in assay [4] and 2.31 µM in assay [5]. In addition, the figures for the inhibition in assay [2], in assay [6] and in assay [7] were 13.9%, 85.9% and 0%, respectively.
Regarding `Oc1ccc2c(c1)Cc1c(-c3ccccc3O)cc(-c3ccc(C(F)(F)F)cc3)nc1-2`, the IC50 in assay [1] came to 7.87 µM; in assay [3], 0.83 µM; in assay [4], 4.33 µM; in assay [5], 2.09 µM. Further, the inhibition was 0% in assay [2], 99.9% in assay [6] and 11.9% in assay [7].
With `Oc1cccc(-c2cc(-c3ccc(Cl)cc3)c3c(n2)-c2cccc(O)c2C3)c1`, the IC50 is 4.63 µM in assay [1], 2.11 µM in assay [3], 2.58 µM in assay [4] and 3.94 µM in assay [5]. Moreover, the inhibition in assay [2] is 0%; in assay [6], 86.3%; in assay [7] it was 4.4%.
For `Oc1ccccc1-c1cc(-c2ccc(Cl)cc2)c2c(n1)-c1c(O)cccc1C2`, the concentration for half-maximal inhibition (IC50) in assay [1] is over 50 µM; in assay [3], 13 µM; in assay [4] it was 18.8 µM; in assay [5], 1.95 µM. The inhibition was determined as 0% in assay [2], 70.5% in assay [6] and 6.4% in assay [7].
On to `Oc1ccc2c(c1)-c1nc(-c3ccccc3O)cc(-c3cccc(Cl)c3)c1C2`, for which the 50% inhibitory concentration (IC50) came out at 20 µM in assay [1], 7.69 µM in assay [3], 29.8 µM in assay [4] and 37.1 µM in assay [5]. For the same molecule, the inhibition in assay [2] is 1.9%; in assay [6] it was 67.2%; in assay [7], 4%.
In the case of `Oc1cccc(-c2cc(-c3ccc(C(F)(F)F)cc3)nc3c2Cc2ccc(O)cc2-3)c1`, the concentration for half-maximal inhibition (IC50) came to 3.63 µM in assay [1], 1.8 µM in assay [3], 2.95 µM in assay [4] and 3.18 µM in assay [5]. Moreover, the figures for the inhibition in assay [2], in assay [6] and in assay [7] were 0%, 100% and 5.1%, respectively.
Consider `Oc1cccc(-c2cc(-c3ccc(F)cc3)nc3c2Cc2ccc(O)cc2-3)c1`, for which the concentration for half-maximal inhibition (IC50) worked out at 3.82 µM in assay [1], 0.68 µM in assay [3], 1.46 µM in assay [4] and 1.06 µM in assay [5]. The inhibition in assay [2] worked out at 11.7%; in assay [6], 48.3%; in assay [7], 5.4%.
In the case of `Oc1ccc2c(c1)-c1nc(-c3ccccc3)cc(-c3ccccc3)c1C2`, the 50% inhibitory concentration (IC50) turned out to be 4.38 µM in assay [1], 0.19 µM in assay [3], 3.13 µM in assay [4] and 3.49 µM in assay [5]. In addition, the inhibition in assay [2] was 2.6%; in assay [6], 79.9%; in assay [7], 5.5%.
